One block for each compound: values may come before it. Where no end group is shown, it is not given here.
Tests used:
PRKG2 = conditions: previous activation data (Campbell 2017; Vaandrager 1997; Pohler 1995); cited from earlier work
[1] = pH 9
Description: To make hydrophobic CNP salts, including CNP variants, CNP-acetate is placed into water or a buffer. In a first experiment, a stock solution comprising CNP at 20 mg/mL in water was prepared. […] Disodium pamoic acid, oleic acid, or sodium docusate were placed in a buffer at a concentration that is in a molar excess to the number of oppositely charged groups on CNP, in this instance a 12 molar excess of counterion to CNP. CNP has 6 positively charged groups at pH 7, and this is a two-fold excess over the number of positively charged groups.

[2] = cited from earlier work
NPR2 = biological target: T1, NPR2 (Rattus norvegicus, UniProt P16067); experiment: cGMP stimulation assay (CatchPoint Cyclic-GMP Fluorescent Assay) in NPR2 mutant RCS cells; assay type: cell-based
T1 construct: endogenous in cells; host or cells: RCS (rat chondrosarcoma) cells, wild-type and NPR2+/- clones
T1 sequence (P16067 17-1047): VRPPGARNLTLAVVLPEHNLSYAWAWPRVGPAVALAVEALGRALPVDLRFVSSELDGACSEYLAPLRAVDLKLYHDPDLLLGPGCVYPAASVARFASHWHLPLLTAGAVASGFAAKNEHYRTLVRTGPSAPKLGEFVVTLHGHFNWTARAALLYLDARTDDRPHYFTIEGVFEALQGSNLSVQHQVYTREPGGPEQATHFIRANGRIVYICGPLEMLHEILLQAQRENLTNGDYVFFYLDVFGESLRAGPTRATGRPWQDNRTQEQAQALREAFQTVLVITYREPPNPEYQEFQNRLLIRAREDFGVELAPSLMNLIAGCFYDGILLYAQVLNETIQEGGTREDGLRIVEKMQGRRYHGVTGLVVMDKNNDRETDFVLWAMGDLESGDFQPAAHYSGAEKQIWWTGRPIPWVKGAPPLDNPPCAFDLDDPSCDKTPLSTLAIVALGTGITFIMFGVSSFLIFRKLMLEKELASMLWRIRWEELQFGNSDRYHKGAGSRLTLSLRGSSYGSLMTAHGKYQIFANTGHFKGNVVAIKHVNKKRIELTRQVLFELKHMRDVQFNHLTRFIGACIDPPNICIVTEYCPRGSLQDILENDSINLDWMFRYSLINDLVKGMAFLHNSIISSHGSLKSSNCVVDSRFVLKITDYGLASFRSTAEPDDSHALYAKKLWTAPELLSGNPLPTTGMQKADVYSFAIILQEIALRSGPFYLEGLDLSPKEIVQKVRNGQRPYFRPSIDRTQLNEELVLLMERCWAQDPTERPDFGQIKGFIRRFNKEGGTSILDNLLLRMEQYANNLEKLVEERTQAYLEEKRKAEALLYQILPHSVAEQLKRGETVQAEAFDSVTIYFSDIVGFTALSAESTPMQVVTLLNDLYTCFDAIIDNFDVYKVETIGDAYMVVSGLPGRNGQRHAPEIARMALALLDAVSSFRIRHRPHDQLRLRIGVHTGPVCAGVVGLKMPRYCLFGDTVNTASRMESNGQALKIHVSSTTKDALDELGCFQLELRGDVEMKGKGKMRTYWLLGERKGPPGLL
Description: To determine the effects of CNP on subjects with short stature resulting from NPR2 mutations, cellular models of NPR2 mutations were developed. Exemplary NPR2 mutations analyzed are set out in FIG. 5. Rat chondrosarcoma (RCS) cells having either a knockout of, or heterozygous loss of function mutations in, the NPR2 gene were made by RNP transfection into RCS cells using 125 ng NPR2 variants or wild-type NPR2 plasmid DNA transfected into RCS or HEK293 cells. Single cell clones were seeded and genotyped by Sanger sequencing. Cell models are able to reproduce published cGMP phenotypes of the different mutations.
The NPR2 clones were created by creating insertions and deletions in the first exon of NPR2 in RCS cells. The sequence of the first exon in NPR2 was confirmed by next-generation sequencing and is set out in FIG. 4. NPR2 mutant cells were tested for activity in response to CNP administration by a cGMP stimulation assay using a CatchPoint Cyclic-GMP Fluorescent Assay after treatment with 6 nM of Pro-Gly CNP37. Briefly, NIH3T3 cells (ATCC, CRL-1658) and NPR-transfected HEK293 cells were seeded at 60,000 cells/well in a 96-well plate (96-well black imaging plates, Grenier, #655090). RCS (rat chondrosarcoma) cells were seeded at 40,000 cells/well. Culture media was as follows: NIH3T3 culture media: DMEM high glucose, pyruvate (Thermo, 11995-073)+10% FBS+1× Pen Strep (abbrev P/S, Thermo, cat #15140122). NIH3T3 was the control system for the cGMP assay HEK293 culture media: EMEM+10% FBS+1×P/S+1×GMAX. RCS culture media: DMEM+10% FBS+1× Pen Strep. Serum free NIH3T3 media: DMEM+1×P/S for treatment of cells with IBMX (CAS 28822-58-4); Serum free NIH3T3 media with BSA: DMEM+1×P/S+0.5 mg/mL BSA (Thermo, A9418-100G) for treatment of cells with CNP.
Cells were incubated for 24 hours at 37° C., 5% CO2. For cells to be treated with CNP variants, plates were pre-treated with IBMX (Enzo life sciences, 89161-340, 1 g) 15 minutes prior to use. IBMX is a potent, non-specific inhibitor of phosphodiesterases. An 800 mM stock solution of IBMX is diluted in IBMX dilution media (serum-free media (DMEM+[…] mixed 1:1 with 1×PBS) to a 0.75 mM working stock.
For cell treatment, cells were removed from the incubator, growth media was removed from cells and cells treated with IBMX. 80 μL 0.75 mM IBMX was added to each well and cells returned to 37° C. incubator for 15 minutes. […]
The cGMP assay was carried out using a cGMP calibrator, rabbit anti-cGMP antibody and HRP-cGMP prepared as according to manufacturer's protocol. 40 μL of calibrator was added to wells of an anti-cGMP antibody coated plated, and 40 μL of lysate to be analyzed added to the appropriate wells. […] The plate was read for fluorescence intensity on a Spectramax M, or similar instrument, at excitation 530 nm and emission at 590 nm.

[3] = tested on: mice deficient in Nf1 in type II collagen producing cells; conditions: daily injections; cited from earlier work
[4] = tested on: mouse model of Cardiofaciocutaneous syndrome using a Braf mutation (p.Q241R); conditions: in vivo; cited from earlier work
NPR—B = biological target: T2, NPR—B (Homo sapiens, UniProt P20594); conditions: cited from earlier work
T2 sequence (P20594 23-1047): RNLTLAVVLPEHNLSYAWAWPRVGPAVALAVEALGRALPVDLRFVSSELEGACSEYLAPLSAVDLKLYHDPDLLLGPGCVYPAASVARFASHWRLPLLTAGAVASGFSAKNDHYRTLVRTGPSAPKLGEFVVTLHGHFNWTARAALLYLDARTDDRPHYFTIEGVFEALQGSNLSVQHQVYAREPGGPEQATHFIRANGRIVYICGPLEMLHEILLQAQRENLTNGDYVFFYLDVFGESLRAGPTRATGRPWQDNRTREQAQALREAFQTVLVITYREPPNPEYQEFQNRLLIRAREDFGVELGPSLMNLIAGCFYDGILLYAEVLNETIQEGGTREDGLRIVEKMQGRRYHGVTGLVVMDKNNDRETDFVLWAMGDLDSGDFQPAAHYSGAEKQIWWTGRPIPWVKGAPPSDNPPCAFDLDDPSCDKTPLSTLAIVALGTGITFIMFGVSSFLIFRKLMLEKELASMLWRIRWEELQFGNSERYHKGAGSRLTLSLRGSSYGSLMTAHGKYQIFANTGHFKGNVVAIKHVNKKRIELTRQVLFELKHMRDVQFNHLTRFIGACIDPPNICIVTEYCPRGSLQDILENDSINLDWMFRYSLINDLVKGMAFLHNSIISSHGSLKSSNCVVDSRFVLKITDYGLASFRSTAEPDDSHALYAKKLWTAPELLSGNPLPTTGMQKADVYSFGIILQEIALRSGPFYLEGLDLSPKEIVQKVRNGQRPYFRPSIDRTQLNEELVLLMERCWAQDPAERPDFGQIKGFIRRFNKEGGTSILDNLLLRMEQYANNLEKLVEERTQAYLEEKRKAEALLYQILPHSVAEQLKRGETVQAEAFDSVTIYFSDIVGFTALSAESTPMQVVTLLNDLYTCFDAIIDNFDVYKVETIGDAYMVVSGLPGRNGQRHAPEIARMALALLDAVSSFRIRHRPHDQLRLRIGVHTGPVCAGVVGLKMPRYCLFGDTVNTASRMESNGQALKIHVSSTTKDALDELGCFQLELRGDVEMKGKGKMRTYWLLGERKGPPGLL

Compound: Nc1nc2c(ncn2[C@@H]2O[C@@H]3COP(=O)(O)O[C@H]3[C@H]2O)c(=O)[nH]1 [cGMP, guanosine 3′,5′ cyclic monophosphate]
EC50 (PRKG2): 40 to 360 nM

solubility of counterion [1]: soluble
Compound: O=C(O)c1cc2ccccc2c(Cc2c([O-])c(C(=O)O)cc3ccccc23)c1[O-].[Na+].[Na+] [disodium pamoic acid]

solubility of counterion [1]: soluble
Compound: CCCCCCCC/C=C\CCCCCCCC(=O)O [oleic acid]
pKa [2]: 4-5

solubility of counterion [1]: soluble
Compound: CCCCC(CC)COC(=O)CC(C(=O)OCC(CC)CCCC)S(=O)(=O)[O-].[Na+] (centres unmarked) [sodium docusate]

Compound: CNP: C-type natriuretic peptide; in the cGMP assay cells were treated with Pro-Gly CNP37 (PGQEHPNARKYKGANKKGLSKGCFGLKLDRIGSMSGLGC; not fully specified (N-terminus, C-terminus); ends and bridges not checked)
rescue of NPR2 signaling (NPR2; cell model of NPR2 haploinsufficiency, exogenous CNP): dose-dependent rescue of NPR2 signaling | CNP dose able to achieve an intracellular cGMP concentration exceeding the EC50 range for PRKG2 activation (NPR2; heterozygous NPR2 knockout cells): > 0.163 nM | CNP dose able to achieve the same cGMP concentration (NPR2; wild-type cells): 0.040 nM | ERK phosphorylation [3]: decreased ERK phosphorylation | short stature [3]: corrected the short stature | body length [4]: increases in body length

Compound: DLRVDTKSRAAWARLLQEHPNARKYKGANKKGLSKGCFGLKLDRIGSMSGLGC [CNP-53]
binding to NPR—B (NPR—B): bind similarly

Compound: GLSKGCFGLKLDRIGSMSGLGC [CNP-22]
binding to NPR—B (NPR—B): bind similarly

cGMP readout (NPR2; NPR2+/− rat chondrosarcoma cell model, exogenous peptide (FIG. 3)): rescues cGMP readout
Compound: PGQEHPNARKYKGANKKGLSKGCFGLKLDRIGSMSGLGC (not fully specified (N-terminus, C-terminus); cysteine pairing not given here) [Pro-Gly-CNP37, CNP variant]

— patent US20220280647A1, “Hydrophobic Peptide Salts for Extended Release Compositions” (BIOMARIN PHARMACEUTICAL INC., priority 2019, published 2022)
